The source made the active and inactive calls. The rule behind the calls is not given here.
Assays:
[1] = test system: PANC-1; experiment: Induction of apoptosis in human PANC-1 cells assessed as late apoptotic cells at 5 uM measured after 48 hrs by Annexin V and dead cell kit analysis (reference value: 2.4%); format: functional
[2] = test system: MCF7; experiment: Induction of apoptosis in human MCF7 cells assessed as early apoptotic cells at 7.5 uM measured after 48 hrs by Annexin V and dead cell kit analysis (reference value: 0.65%); format: functional
[3] = test system: MCF7; experiment: Cell cycle arrest in human MCF7 cells assessed as accumulation at G0/G1-phase at 7.5 uM measured after 24 hrs by muse cell analyser (reference value: 52.65 to 53.3%); format: functional
[4] = test system: PANC-1; experiment: Cell cycle arrest in human PANC-1 cells assessed as accumulation at S-phase at 2.5 uM measured after 24 hrs by muse cell analyser (reference value: 14.3 to 14.9%); format: functional
[5] = test system: MCF7; experiment: Up regulation of p53 expression in human MCF7 cells at 1 to 5 uM measured after 24 hrs by Western blot analysis; format: functional, cell-based; conditions: dose 1-5 µM
[6] = test system: PANC-1; experiment: Up regulation of p53 expression in human PANC-1 cells at 0.5 to 5 uM measured after 24 hrs by Western blot analysis relative to control; format: functional, cell-based; conditions: dose 0.5-5 µM
[7] = test system: NHDF; experiment: Cytotoxicity against NHDF cells assessed as reduction in cell viability measured after 72 hrs by MTS assay; format: cell-based; conditions: Homo sapiens
[8] = test system: PANC-1; experiment: Effect on cdc2 expression in human PANC-1 cells at 0.5 to 5 uM measured after 24 hrs by Western blot analysis; format: functional, cell-based; conditions: dose 0.5-5 µM
[9] = test system: PANC-1; experiment: Cell cycle arrest in human PANC-1 cells assessed as accumulation at G2/M-phase at 2.5 uM measured after 24 hrs by muse cell analyser (reference value: 36.3 to 36.88%); format: functional
[10] = test system: PANC-1; experiment: Up regulation of p21 expression in human PANC-1 cells at 0.5 uM measured after 24 hrs by Western blot analysis; format: functional, cell-based
[11] = test system: PANC-1; experiment: Cytotoxicity against human PANC-1 cells assessed as reduction in cell viability measured after 72 hrs by MTS assay; format: functional, cell-based; conditions: PANC-1, 72 h
[12] = test system: PANC-1; experiment: Cell cycle arrest in human PANC-1 cells assessed as accumulation at G0/G1-phase at 2.5 uM measured after 24 hrs by muse cell analyser (reference value: 48.28 to 48.7%); format: functional
[13] = test system: PANC-1; experiment: Induction of apoptosis in human PANC-1 cells assessed as increase in PARP cleavage at 0.5 to 5 uM measured after 24 hrs by Western blot analysis; format: functional, cell-based; conditions: dose 0.5-5 µM
[14] = test system: PANC-1; experiment: Induction of apoptosis in human PANC-1 cells assessed as early apoptotic cells at 7.5 uM measured after 48 hrs by Annexin V and dead cell kit analysis (reference value: 10.95%); format: functional
[15] = test system: MCF7; experiment: Down regulation of p21 expression in human MCF7 cells at 5 uM measured after 24 hrs by Western blot analysis; format: functional, cell-based
[16] = test system: PANC-1; experiment: Induction of autophagy in human PANC-1 cells assessed as increase in LC3 expression at 1 uM measured after 24 hrs by muse cell analyzer based fluorescence assay relative to control; format: functional
[17] = test system: K562; experiment: Cytotoxicity against human K562 cells assessed as reduction in cell viability measured after 72 hrs by MTS assay; format: functional, cell-based; conditions: K562, 72 h
[18] = test system: MCF7; experiment: Induction of apoptosis in human MCF7 cells assessed as late apoptotic cells at 5 uM measured after 48 hrs by Annexin V and dead cell kit analysis (reference value: 1.45%); format: functional

c1ccc(-c2cn(-c3ccc(-c4cc(-c5ccccn5)nc(-c5ccccn5)c4)cc3)nn2)nc1
Activity [1]: 8.75%
Activity [2]: 28.2%
Activity [3]: 60.4%
Activity [4]: 11.2%
Activity [5]: inactive
Activity [6]: inactive
IC50 [7]: > 25000 nM
Activity [8]: inactive
Activity [9]: 30.2%
Activity [10]: Active
IC50 [11]: 114 nM
Activity [12]: 53.98%
Activity [13]: Active
Activity [14]: 54.6%
Activity [15]: Active
fold change (FC) [16]: 2.2
IC50 [17]: 916 nM
Activity [18]: 11.4%
